One series in a line: DPPH free radical assay. Conditions: for DPPH IC50: 30 min, 516 nm; for DPPH IC50 obtained after log transformation of data: value in brackets, data not normally distributed. Here is the method: The antioxidant activities of the samples were measured in terms of radical scavenging ability using the stable radical (DPPH) method of Brand-Williams et al. ([12]) with some modifications. Methanol solutions (40 μl) of the samples and positive controls (Trolox and ascorbic acid) at various concentrations (0.1–100 μg/ml) were prepared by serial dilution in a 96 well-microtitre plate. One hundred and sixty (160) μl of DPPH in methanol adjusted to an absorbance between 0.9 and 1.0 was added and the plates were incubated in the dark at room temperature (25°C) for 30 min. Absorbance was measured against a blank with a microtitre plate reader (Epoch, BioTek, United States) at 516 nm. The DPPH scavenging effect was determined using the following formula:
(1) DPPH Scavenging Effect(%)=[(A1-A2/A1)] × 100
Where A1 is the absorbance of the control reaction and A2 is the absorbance in the presence of the sample. Trolox and ascorbic acid were used as controls. The experiments were conducted twice.

Series [1] in a line: ABTS free-radical-scavenging assay. To be noted: for ABTS IC50: 6 min, 734 nm; for ABTS IC50 obtained after log transformation of data: value in brackets, data not normally distributed. How it is done:
The free radical-scavenging activity as a measure of hydrogen donating capacity was determined by using the ABTS cation decolourization method of Re et al. ([16]) with some modifications. ABTS radical solution (7 μM) was prepared by dissolving 1.32 × 10^4 μg of ABTS in 10 ml of 50% methanolic solution and 7.68 × 10^4 μg of potassium persulphate ([…]) in 10 ml of distilled water. The two solutions were mixed together and made up to 200 ml with 50% methanolic solution, and kept in the dark at room temperature, 25°C for 12 h. Prior to running the assay, the ABTS radical solution was diluted with 50% methanolic solution to an absorbance between 0.7 and 0.8 at 734 nm. The samples were serially diluted (40 μl) (0.1–100 μg/ml) in 96 well-microtitre plates and 160 μl of ABTS radical solution was added to each well. The absorbance readings were taken after exactly 6 min of reaction and blanks were prepared using the respective samples without ABTS radical. The scavenging effect was calculated using the following formula:
(2) ABTS Scavenging Effect(%)=[(A1-A2/A1)] × 100
The IC50 values were calculated from a graph plotted as inhibition percentage against the concentration. A Trolox standard curve was drawn by plotting percentage inhibition of the ABTS+ radical against the concentration of Trolox. Data from the test samples were analysed in a similar manner.

The test system of series [2] is Escherichia coli (ATCC 25922). The experiment in a line: MIC by serial two-fold microdilution. The class given is cell-based. Conditions: ATCC25922, 24 h. Here is the method:
(§1) The four bacterial cultures were prepared by inoculating a single colony from an agar plate into 10 ml of sterilised Mueller-Hinton (MH) broth (Merck, South Africa) and incubating at 37°C in an MRC orbital shaker (150 rpm) incubator (United Scientific, South Africa) for 18 to 20 h prior to the experiment. Following incubation, each bacterial strain was diluted in MH broth (Merck, South Africa) and the absorbance was measured at a wavelength of 560 nm using a spectrophotometer (Epoch microplate reader: BioTek, United States).
(§2) The assay was performed in microtitre plates (Lasec, South Africa) by adding 100 μl of sterile water to all wells. In the first row, 100 μl of extract, fraction or compound were added in triplicate and serially diluted two-fold to the last well, from which 100 μl were then discarded. Gentamicin (Virbac, South Africa) was used as a positive control and a sterility control containing only water was included. This was followed by addition of 100 μl of the bacterial suspension to each well (except for the sterility control). The plates were sealed with parafilm and incubated at 37°C (IncoTherm, Labotec). After 24 h, 40 μl of a 0.2 mg/ml solution of INT was added to each well and the plate further incubated for at least half an hour to ensure adequate colour development. INT is a dehydrogenase activity detecting reagent, which is converted into an intensely coloured red-purple formazan by metabolically active micro-organisms. Inhibition of growth was indicated by a clear solution or a noticeable decrease in colour reaction. This value was taken as the MIC of the sample. The experiments were conducted twice.
A general note: Dilution methods test growth across graded concentrations, often in twofold steps.

Series [3] relates to Escherichia coli (clinical strain). The series is described as follows: MIC by serial two-fold microdilution. Conditions: 24 h. The class given is cell-based. How it is done: as §1, §2
Series [4] relates to Staphylococcus aureus (ATCC 29213). The series is described as follows: MIC by serial two-fold microdilution. The class given is cell-based. Conditions: ATCC29213, 24 h. Here is the method: as §1, §2
Another series concerns the target T1, 15-LOX (Glycine max, UniProt P08170).
T1 construct: purchased Sigma Aldrich, Germany
T1 sequence (P08170 1-839): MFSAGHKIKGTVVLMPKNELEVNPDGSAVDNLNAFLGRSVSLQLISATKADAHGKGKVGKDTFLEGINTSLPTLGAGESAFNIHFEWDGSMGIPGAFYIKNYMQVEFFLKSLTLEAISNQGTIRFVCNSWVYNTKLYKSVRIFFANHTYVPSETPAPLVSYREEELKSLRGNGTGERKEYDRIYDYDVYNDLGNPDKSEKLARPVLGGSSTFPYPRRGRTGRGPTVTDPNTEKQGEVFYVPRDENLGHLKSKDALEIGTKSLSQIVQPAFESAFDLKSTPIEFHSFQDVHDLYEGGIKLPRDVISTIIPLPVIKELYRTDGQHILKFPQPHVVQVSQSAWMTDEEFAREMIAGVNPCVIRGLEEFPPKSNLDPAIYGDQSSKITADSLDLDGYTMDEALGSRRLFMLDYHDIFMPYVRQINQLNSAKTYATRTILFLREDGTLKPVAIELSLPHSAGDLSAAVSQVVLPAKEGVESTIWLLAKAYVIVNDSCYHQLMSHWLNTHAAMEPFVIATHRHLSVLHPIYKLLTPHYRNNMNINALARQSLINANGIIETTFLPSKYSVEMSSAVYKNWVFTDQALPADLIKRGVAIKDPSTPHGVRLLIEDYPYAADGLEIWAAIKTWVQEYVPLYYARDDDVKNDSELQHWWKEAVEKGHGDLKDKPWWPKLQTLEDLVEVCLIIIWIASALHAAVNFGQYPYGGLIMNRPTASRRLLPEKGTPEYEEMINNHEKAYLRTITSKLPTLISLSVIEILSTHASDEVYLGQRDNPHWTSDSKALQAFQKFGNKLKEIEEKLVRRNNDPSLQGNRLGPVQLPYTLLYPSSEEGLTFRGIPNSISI
The series is described as follows: biochemical.

For series [5], the system named is Escherichia coli (ATCC 25922). The series is described as follows: Antibacterial TLC bioautography. The class given is cell-based. To be noted: E. coli. The text has this: (§3) The compounds in the crude extract and fractions, as well as the purified compounds were developed as described above but the bioautograms were sprayed with respective cultures. After development, the TLC plates were dried overnight in a stream of cold air and sprayed with an actively growing concentrated suspension of strains of either Staphylococcus aureus (ATCC 29213), Salmonella enterica subsp. enterica var. Enteritidis (S. Enteritidis ATCC 13076) or Escherichia coli (ATCC 25922). The plates were dried and incubated overnight at 37°C in closed, sterile, humidified plastic containers to allow growth of the bacteria on the plates. After incubation, the plates were sprayed with a sterile 2 mg/ml solution of p-iodonitrotetrazolium (INT, Sigma-Aldrich) salt and incubated for a further 1 h. The presence of clear zones on the chromatogram after the incubation period indicated inhibition of growth as the INT is metabolised to a coloured formazan product by the actively growing cells ([11]). The retention factors of the bands of inhibition were calculated.

For series [6], the system named is Staphylococcus aureus (ATCC 29213). The series is described as follows: Antibacterial TLC bioautography. The series is classed as cell-based. Conditions: S. aureus.
Description: as §3

Series [7] has as its system S. Enteritidis ATCC 13076. The series is described as follows: Antibacterial TLC bioautography. The series is classed as cell-based, Salmonella enterica subsp. enterica var. Enteritidis.
Description: as §3

Series [8] in a line: Qualitative antioxidant activity, TLC sprayed with DPPH. To be noted: TLC sprayed with DPPH 0.2% w/v. How it is done:
TLC plates (10 × 20 cm, aluminium-backed, Merck, silica gel 60 F254) were loaded with 10 μl of the crude extract, fraction or compound (re-dissolved to 10 mg/ml) and dried before being developed in two mobile phase systems (CEF and EMW). […] A change of colour from the DPPH purple background to yellow indicated the presence of antioxidant compounds ([13]).
Background: The DPPH test is a chemical assay of radical scavenging.

Series [9] deals with three ATCC strains and E. coli clinical strain. The experiment in a line: MIC by microdilution, stated over the whole panel of strains. The class given is cell-based. How it is done: as §1
as §2, with “INT is a dehydrogenase activity detecting reagent, which is converted into an intensely coloured red-purple formazan by metabolically active micro-organisms. Inhibition of growth was indicated by a clear solution or a noticeable decrease in colour reaction. This value was taken as the MIC of the sample. The experiments were conducted twice.” left out

Another series in a line: in vitro. Conditions: monkey.
The subject of series [10] is Salmonella Enteritidis (ATCC 13076). The series is described as follows: MIC by serial two-fold microdilution. Conditions: Salmonella enterica, 24 h. The series is classed as cell-based, Salmonella enterica subsp. enterica var. Enteritidis. How it is done: as §1
as §2, with “INT is a dehydrogenase activity detecting reagent, which is converted into an intensely coloured red-purple formazan by metabolically active micro-organisms. Inhibition of growth was indicated by a clear solution or a noticeable decrease in colour reaction. This value was taken as the MIC of the sample. The experiments were conducted twice.” left out

Structures are written as SMILES. Values after ≈ are worked out from the molar mass of the structure shown. Marks after values point to notes of the source that are not given here.

Description for 15-LOX: Lipoxygenase (LOX) activity of the samples was determined spectrophotometrically according to published methods ([17], [18]). LOX inhibition was determined spectrophotometrically based on the formation of the complex Fe3+/xylenol orange as described by Pinto et al. ([19]). Briefly, 20 μl of Tris-HCl buffer (pH 7.4) was added to all wells of the 96-well-microplates. This was followed by the addition of 20 μl of the fractions (1 or 0.5 mg/ml) in the first row of the plate which was serially diluted. […] After the serial dilution, 40 μl of the lipoxygenase enzyme (Sigma Aldrich, Germany) was added to each well and the plates were incubated at room temperature 25°C for 5 min. After incubation, 40 μl of linoleic acid (final concentration, 140 μM) prepared in Tris-HCl buffer (50 mM, pH 7.4) was added to the well (except for the blanks). The plates were incubated at 25°C for 20 min in the dark. After incubation, 100 μl of freshly prepared ferrous oxidation–xylenol orange (FOX) reagent [sulfuric acid (30 mM), xylenol orange (100 μM), iron (II) sulphate (100 μM) in methanol/water (9:1)] was added to all wells. The plates were further incubated at 25°C for 30 min in the dark, 40 μl of linoleic acid was then added to the blanks. The absorbance was measured at 560 nm. […] The experiments were conducted twice.
Description for Vero monkey kidney cells: (§4) The cytotoxic effect of the fractions and the isolated compounds was determined using an in vitro assay with Vero monkey kidney cells ([15]). The growth medium used was Minimal Essential Medium (MEM, Whitehead Scientific) supplemented with 0.1% gentamicin (Virbac) and 5% foetal calf serum (Highveld Biological). The cells were seeded at a density of 10 000 cells/per well in 96-well-microtitre plates. The plates were incubated at 37°C in a 5% CO2 incubator in a humidified environment for 24 h to allow cell attachment.
(§5) After incubation, the medium was aspirated and replaced with fresh MEM. The fractions/compounds (100 μl) of varying concentrations were added to the wells containing cells. The anticancer compound doxorubicin (Pfizer Laboratories) was used as a positive control. A suitable blank control with equivalent concentrations of fresh medium was also included and the plates were further incubated for 48 h in a CO2 incubator. Subsequently, the medium in each well was aspirated from the cells, which were washed with phosphate-buffered saline (PBS) and fresh medium was then added to each well. A 30 μl aliquot of MTT (5 mg/ml in PBS) was added to each well and the plates were incubated at 37°C for 4 h. The medium was then aspirated from wells and 50 μl DMSO was added to each well to solubilise the formed formazan crystals. The absorbance was measured on a BioTek Synergy microtitre plate reader at 570 nm. Cell growth inhibition for each extract was expressed in terms of LC50 values. […] The cytotoxicity assay was repeated thrice.
Description for in vitro: as §4, §5

Consider `O=C1O[C@H]([C@@H](O)CO)C(O)=C1O` [Ascorbic acid, ascorbic acid], for which, in the series “DPPH free radical assay”, the “DPPH IC50” value is 1.97 ± 0.21 µg/mL and the “DPPH IC50 obtained after log transformation of data” value worked out at 2.45 μg/ml. Further, in series [1], the “ABTS IC50” value is 1.90 ± 0.07 µg/mL and the “ABTS IC50 obtained after log transformation of data” value is given as 2.45 μg/ml.

As a reminder, the MIC is the lowest concentration found to suppress growth. The term IC50 denotes the concentration needed to halve the response being measured. `O=c1cc(-c2ccc(O)c(O)c2)oc2cc(O)cc(O)c12` [Compound 1, luteolin]: the MIC in [2] is 156 µg/mL (≈ 545 µM); in series [3], 156 µg/mL (≈ 545 µM); in series [4], 625 µg/mL (≈ 2180 µM); in [9] (Escherichia coli, three ATCC strains and E. coli clinical strain, read-out: MIC values over the tested strains) it was > 100 µg/mL. Further, the “DPPH IC50” value in the series “DPPH free radical assay” is recorded as 5.92 ± 0.64^a μg/ml. Also, in [1], the “ABTS IC50” value is 8.17 ± 0.80^a μg/ml. The same compound gave an IC50 against 15-LOX of 25.8 µM. For the same compound, the “antibacterial activity in bioautography” value in series [5], in series [6] and in series [7] was “active” in each case. Further, the “antioxidant activity in bioautography (DPPH bleaching)” value in series [8] is “antioxidant activity”. Besides, the antibacterial activity class result in series [9] (all the tested bacterial strains) is listed as “weak (values >625 μg/ml indicate weak activity)”. In addition, the cytotoxicity class entry in the series on Vero monkey kidney cells is on record as “moderate”. The compound also gave a CC50 at 48 h in the series “in vitro” of 92.9 ± 1.7 µg/mL (≈ 325 µM).

In turn, `COc1cccc2c1C(=O)c1c(O)c3c(c(O)c1C2=O)C[C@@](O)(C(=O)CO)C[C@@H]3O[C@H]1C[C@H](N)[C@H](O)[C@H](C)O1` [Doxorubicin, doxorubicin, reference compound] displayed a CC50 at 48 h in the series “in vitro” of 9 ± 1.28 µg/mL (≈ 16.6 µM).

On to `CNC(C)C1CCC(N)C(OC2C(N)CC(N)C(OC3OCC(C)(O)C(NC)C3O)C2O)O1` (stereo not drawn) [Gentamicin, reference compound], for which the MIC in series [2], in [3], in [4] and in [10] was 20 µg/mL (≈ 41.9 µM) each time.

Regarding `Cc1c(C)c2c(c(C)c1O)CCC(C)(C(=O)O)O2` (stereo not drawn) [Trolox], in “DPPH free radical assay”, the “DPPH IC50” value worked out at 3.19 ± 0.32 µg/mL and the “DPPH IC50 obtained after log transformation of data” value is 4.02 μg/ml. For the same compound, in series [1], the “ABTS IC50” value came out at 2.21 ± 0.30 µg/mL and the “ABTS IC50 obtained after log transformation of data” value is on record as 2.76 μg/ml.

The record behind these values is PMC8793064, “Bioassay Guided Fractionation of Senna singueana and Its Potential for Development of Poultry Phytogenic Feed Additives” (Frontiers in Veterinary Science, 2022).
